Where two headings read alike, the source gives them in different places.
How the values were obtained:
DPIV [1] = molecular target: T1, DPIV (Homo sapiens, UniProt P27487); assay: DPIV inhibition assay (L-alanyl-L-proline-para-nitroanilide substrate, absorbance at 410 nm)
Experimental: (§1) The inhibitor solution was prepared by dissolving 3-5 mg of inhibitor in pH 2 solution (0.01 N HCl), such that the concentration of the solution was equal to 1 mg/10 μL. A 10 μL sample of this solution was then added to 990 μL of pH 8 buffer (0.1 M HEPES, 0.14 M NaCl), and the solution was allowed to stand at room temperature overnight.
(§2) The substrate solution was prepared by dissolving 2.0 mg of L-alanyl-L-proline-para-nitroanilide into 20 mL of pH 8 buffer.
(§3) 250 μL of enzyme solution was added to well #B1 to #H1, #A2 to #H2, and #A3 to #H3 of a 96 well plate, while well #A1 received 250 μL of pH 8 buffer instead of enzyme solution. 90 μL of pH 8 buffer was then added to column 5 (from well #A5 to #H5).
(§4) A 1:10 dilution was then performed by adding inhibitor solution to #A5 and the solution was mixed well before transferring 10 μL of this solution from #A5 to #B5. The solution in #B5 was then mixed well before transferring 10 μL of this solution from #B5 to #C5. The solution in #C5 was then mixed well before transferring 10 μL of this solution from #C5 to #D5. The solution in #D5 was then mixed well before transferring 10 μL of this solution from #D5 to #E5. The solution in #E5 was then mixed well before transferring 10 μL of this solution from #E5 to #F5. The solution in #F5 was then mixed well before transferring 10 μL of this solution from #F5 to #G5. The solution in #G5 was then mixed well before transferring 10 μL of this solution from #G5 to #H5.
(§5) A 30 μL aliquot was then transferred from #H5 to #H3 for row H, and the contents were mixed well. The analogous procedure was repeated for rows G, F, E, D, C, B, and A sequentially. The plate was then shaken on a plate shaker for 5 minutes before allowing the plate to incubate at room temperature for an additional 5 minutes.
(§6) Once the plate had been allowed to incubate, 30 μL of substrate was added to each well except well #A1. The plate was then placed on a plate shaker for 5 minutes before allowing the plate to incubate at room temperature for 25 minutes. The absorbance was then immediately read at a wavelength of 410 nm.

DP9 = DP9 (Homo sapiens, UniProt Q86TI2); assay: Dipeptidyl peptidase 9 inhibition assay (Example 1 assay with DP9 substituted for DPIV); assay type: biochemical; details: for DP9/DPIV ratio: ratio of IC50 values, selectivity for DPIV
Experimental: In this example, the assay was conducted for DPIV and DP9. The ratio of IC50 values for each tested compound was calculated in order to determine the selectivity for the DPIV isoform. IC50 values were measured at the same pH throughout the assay.

DPIV [2] = molecular target: T1, DPIV; details: pH 8
Experimental: as §1, §2, §3, §4, §5, §6

DP8 = DP8 (Homo sapiens, UniProt Q6V1X1); assay: Dipeptidyl peptidase 8 inhibition assay (Example 1 assay with DP8 substituted for DPIV); assay type: biochemical; details: at the pH values tested
Experimental: L-Ala-[5-(HOCH2)-2-boroPro] was also tested to determine its inhibition of dipeptidyl peptidases 8 and 9 (DP8 and DP9). The assay is the same as that described in Example 1, except that DP8 or DP9 was substituted for DPIV.

[3] = read-out: DPIV IC50, Example 6, same pH throughout the assay (pH not stated)
[4] = Example 6, same pH throughout the assay (pH not stated), read-out: DP9 IC50

T1 sequence (P27487 whole entry): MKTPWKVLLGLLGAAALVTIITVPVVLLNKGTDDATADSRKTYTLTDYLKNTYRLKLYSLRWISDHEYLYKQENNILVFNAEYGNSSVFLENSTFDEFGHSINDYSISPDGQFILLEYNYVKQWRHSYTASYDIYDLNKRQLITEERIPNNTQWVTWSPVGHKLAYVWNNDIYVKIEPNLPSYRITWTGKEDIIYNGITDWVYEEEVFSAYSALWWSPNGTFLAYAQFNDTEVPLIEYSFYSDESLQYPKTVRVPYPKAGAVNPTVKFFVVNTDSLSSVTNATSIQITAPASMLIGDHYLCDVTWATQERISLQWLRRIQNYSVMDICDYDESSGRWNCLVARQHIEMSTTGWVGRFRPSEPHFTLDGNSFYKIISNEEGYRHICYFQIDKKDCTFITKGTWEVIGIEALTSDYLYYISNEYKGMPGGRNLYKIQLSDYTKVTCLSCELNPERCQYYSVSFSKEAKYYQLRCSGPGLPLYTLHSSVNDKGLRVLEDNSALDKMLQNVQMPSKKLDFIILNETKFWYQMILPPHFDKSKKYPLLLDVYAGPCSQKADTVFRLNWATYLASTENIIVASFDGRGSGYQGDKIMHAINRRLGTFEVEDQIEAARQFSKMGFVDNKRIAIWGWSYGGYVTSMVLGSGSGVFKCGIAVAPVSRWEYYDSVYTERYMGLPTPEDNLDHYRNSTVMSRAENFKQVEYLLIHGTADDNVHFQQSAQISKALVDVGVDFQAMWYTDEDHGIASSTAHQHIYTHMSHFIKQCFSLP
Chain of DP9 (Q86TI2 whole entry, species assumed, canonical isoform): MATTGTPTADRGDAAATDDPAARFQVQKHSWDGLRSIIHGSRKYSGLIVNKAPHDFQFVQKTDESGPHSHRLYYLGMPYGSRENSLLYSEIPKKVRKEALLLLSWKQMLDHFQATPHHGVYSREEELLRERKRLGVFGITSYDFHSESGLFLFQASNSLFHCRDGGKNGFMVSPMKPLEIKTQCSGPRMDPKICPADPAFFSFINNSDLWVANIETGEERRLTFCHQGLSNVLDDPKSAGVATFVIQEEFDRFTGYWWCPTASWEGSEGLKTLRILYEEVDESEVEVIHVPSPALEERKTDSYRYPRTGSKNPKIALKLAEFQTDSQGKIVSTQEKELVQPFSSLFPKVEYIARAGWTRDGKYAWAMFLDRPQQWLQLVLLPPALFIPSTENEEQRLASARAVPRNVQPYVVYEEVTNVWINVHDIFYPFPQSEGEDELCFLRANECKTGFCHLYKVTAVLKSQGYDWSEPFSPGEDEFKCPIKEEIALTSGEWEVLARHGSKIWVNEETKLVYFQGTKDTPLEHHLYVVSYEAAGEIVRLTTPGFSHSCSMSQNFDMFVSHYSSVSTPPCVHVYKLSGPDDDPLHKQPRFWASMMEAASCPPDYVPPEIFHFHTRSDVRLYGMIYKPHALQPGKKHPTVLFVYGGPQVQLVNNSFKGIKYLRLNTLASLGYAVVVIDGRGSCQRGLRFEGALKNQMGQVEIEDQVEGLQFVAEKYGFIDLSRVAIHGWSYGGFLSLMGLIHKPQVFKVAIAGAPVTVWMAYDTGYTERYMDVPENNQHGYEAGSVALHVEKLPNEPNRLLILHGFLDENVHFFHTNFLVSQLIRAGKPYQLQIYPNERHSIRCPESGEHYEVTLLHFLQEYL
Chain of DP8 (Q6V1X1 whole entry, species assumed): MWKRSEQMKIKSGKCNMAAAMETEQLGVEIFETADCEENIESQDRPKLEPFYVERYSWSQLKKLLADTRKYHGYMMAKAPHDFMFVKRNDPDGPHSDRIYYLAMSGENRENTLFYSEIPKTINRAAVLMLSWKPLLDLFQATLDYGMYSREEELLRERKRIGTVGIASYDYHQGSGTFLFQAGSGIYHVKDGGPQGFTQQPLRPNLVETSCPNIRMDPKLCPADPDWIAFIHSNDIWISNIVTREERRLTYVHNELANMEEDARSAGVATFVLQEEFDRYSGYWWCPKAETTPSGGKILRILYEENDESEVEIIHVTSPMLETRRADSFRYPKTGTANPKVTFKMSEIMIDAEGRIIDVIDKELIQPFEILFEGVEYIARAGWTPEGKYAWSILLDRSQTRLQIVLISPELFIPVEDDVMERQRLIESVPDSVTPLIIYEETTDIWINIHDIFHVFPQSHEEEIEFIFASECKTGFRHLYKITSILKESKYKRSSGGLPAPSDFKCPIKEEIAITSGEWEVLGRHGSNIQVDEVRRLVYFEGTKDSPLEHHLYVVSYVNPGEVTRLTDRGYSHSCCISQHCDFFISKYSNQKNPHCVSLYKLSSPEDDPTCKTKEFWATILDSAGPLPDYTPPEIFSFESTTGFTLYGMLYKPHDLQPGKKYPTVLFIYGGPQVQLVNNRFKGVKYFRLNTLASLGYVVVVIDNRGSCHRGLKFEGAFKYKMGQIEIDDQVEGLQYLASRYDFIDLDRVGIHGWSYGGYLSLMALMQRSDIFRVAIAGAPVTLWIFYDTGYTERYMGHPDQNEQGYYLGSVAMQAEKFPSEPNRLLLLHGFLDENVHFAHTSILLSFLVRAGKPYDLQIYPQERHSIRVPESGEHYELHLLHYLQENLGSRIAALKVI

Row | Compound | IC50 (DPIV [1]; [3]) | IC50 (DP9; [4]) | DP9/DPIV ratio (DP9) | further results
1 | C[C@H](NC(=O)[C@@H](N)CCCN=C(N)N)B(O)O [Arg-boroAla] | 8 nM | 0.023 µM | 2.88 | 
2 | N=C(N)NCCC[C@H](N)C(=O)N1CCC[C@H]1B(O)O [Arg-boroPro] |  | 0.824 µM | 412 | IC50 (DPIV [1]; DPIV IC50 (nM), Example 6, same pH throughout the assay (pH not stated)): 2 nM
3 | C[C@H](NC(=O)[C@@H](N)CC(=O)O)B(O)O [Asp-boroAla] | 797000 nM | 5000 µM | 6.28 | 
4 | CC[C@H](NC(=O)[C@@H](N)CCC(=O)O)B(O)O [Glu-boroEtg] |  |  |  | IC50 (DPIV [1]; IC50, DPIV, pH 8): 49 nM
5 | N[C@@H](CCC(=O)O)C(=O)N1CCC[C@H]1B(O)O [Glu-boroPro] | 3 nM |  |  | IC50 (DPIV [2]): 2.4 µM
6 | CC1CC[C@@H](B(O)O)N1C(=O)[C@H](C)N (stereo partly drawn) [L-Ala-5-Me-boroPro] |  |  |  | IC50 (DPIV [1]; IC50 at pH 2, DPIV, pH 2): 11 nM; IC50 (DPIV [1]; IC50 at pH 8, DPIV, pH 8): 15400 nM
7 | C[C@H](N)C(=O)N1C(CO)CCC1B(O)O (stereo partly drawn) [L-Ala-[5-(HOCH2)-2-boroPro]] | 40 nM | 28000 µM | 700,000 | IC50 (DPIV [1]; read-out: IC50 at pH 2, DPIV, pH 2): 21.9 nM; IC50 (DPIV [1]; read-out: IC50 at pH 8, DPIV, pH 8): 12900 nM; IC50 (DP8): > 70 µM; IC50 (DP9; DP9, at the pH values tested, read-out: IC50): > 70 µM; selectivity for DPIV over DP9 (DP9; in words, based on the IC50 ratios of Example 6): highly selective for DPIV
8 | Arg-boroEtGly | 10 nM | 0.007 µM | 0.70 | 
